{"source": "patent EP0546475A1", "about": "“Biologically active pseurotin A and D, new metabolites from Aspergillus fumigatus, process for their preparation and their use as apomorphine antagonists” (HOECHST AKTIENGESELLSCHAFT, priority 1991, dated 1993)", "key": {"[1]": {"experiment": "Solubility in organic solvents", "assay_type": "physicochemical", "details": "in CH2C12, CHCl3, Essigsäureethylester, Aceton, Ethanol und Isopropanol; isolated as amorphous solid", "excerpt": "Die Pseurotine A und D wurden als amorpher Feststoff isoliert und sind z.B. löslich in CH2C12, CHCl3, Essigsäureethylester, Aceton, Ethanol und Isopropanol."}, "[2]": {"test_system": "durch Apomorphin verursachten Kletterns", "experiment": "Inhibition of apomorphine-induced climbing in mice (apomorphine antagonism)", "assay_type": "in vivo, Mäusen", "details": "test substance given 30 min (i.p.) or 60 min (p.o.) before apomorphine, dose of test substance not given", "protocol": "Test auf biologische Aktivität von Pseurotin A und D: • Die Wirkung der Verbindungen der Formel I und 11 als Apomorphin Antagonisten wird an Mäusen getestet. Hierzu wird zunächst Apomorphin als 1 %ige Lösung (Verdünnungsmittel: Tylose, z. B. Methocel, Hoechst AG, Frankfurt, Deutschland)) einmalig […] injiziert. Die Dosis ist so gewählt, daß sie bei 95 % der Mäuse für ca. 30 Minuten eine anhaltende Klettertätigkeit auslöst (1,5 mg Apomorphin/kg Maus; subcutane Injektion). Tiere, die noch vor der Apomorphingabe eine konstante Klettertätigkeit aufweisen, werden nicht im Test berücksichtigt. Pseurotin A und/oder D wird 30 bzw. 60 Min. vor Apomorphin appliziert (i.p. bzw. p.o.). Es wird viermal abgelesen: unmittelbar vor sowie 10,20 und 30 Min. nach Apomorphin-Injektion. Dabei wird das Kletterverhalten pro Maus beurteilt: • Testkriterium ist, ob eine Hemmung des durch Apomorphin verursachten Kletterns eintritt."}, "[3]": {"experiment": "Stability in the solid state and in solution", "assay_type": "physicochemical", "details": "for Stabilität im festen Zustand: solid state; for Stabilität in Lösungen: solutions, pH range between 3 and 8, in particular 5 and 7", "excerpt": "Die Verbindungen der Formel 1 oder 11 ist im festen Zustand und in Lösungen im pH-Bereich zwischen 3 und 8, insbesondere 5 und 7, stabil und läßt sich damit in übliche galenische Zubereitungen einarbeiten."}, "[4]": {"details": "10 min after apomorphine (1,5 mg Apomorphin/kg Maus), seen in the majority (Mehrzahl) of treated mice"}, "[5]": {"details": "20 min after apomorphine (1,5 mg Apomorphin/kg Maus)"}}, "data": [{"smiles": "CCC(O)C=C[C@H](O)C1=C(C)C(=O)[C@]2(O1)C(=O)N[C@@](OC)(C(=O)c1ccccc1)[C@@H]2O", "note": "(stereo partly shown) [Pseurotin D]", "values": [{"measurement": "Löslichkeit", "setting": "[1]", "value": "löslich"}, {"measurement": "Kletterverhalten pro Maus (Hemmung des durch Apomorphin verursachten Kletterns)", "setting": "[2]; [4]", "value": "nur noch 1 oder 2 Pfoten an der Wand"}, {"measurement": "Kletterverhalten pro Maus (Hemmung des durch Apomorphin verursachten Kletterns)", "setting": "[2]; [5]", "value": "nahezu alle Tiere deutliche Symptome in Form der Kletterhemmung (4 Pfoten am Boden)"}, {"measurement": "Stabilität im festen Zustand", "setting": "[3]", "value": "stabil"}, {"measurement": "Stabilität in Lösungen", "setting": "[3]", "value": "stabil"}]}, {"smiles": "CC/C=C\\[C@H](O)[C@H](O)C1=C(C)C(=O)[C@]2(O1)C(=O)N[C@@](OC)(C(=O)c1ccccc1)[C@@H]2O", "note": "[Pseurotin A]", "values": [{"measurement": "Löslichkeit", "setting": "[1]", "value": "löslich"}, {"measurement": "Kletterverhalten pro Maus (Hemmung des durch Apomorphin verursachten Kletterns)", "setting": "[2]; [4]", "value": "nur noch 1 oder 2 Pfoten an der Wand"}, {"measurement": "Kletterverhalten pro Maus (Hemmung des durch Apomorphin verursachten Kletterns)", "setting": "[2]; [5]", "value": "nahezu alle Tiere deutliche Symptome in Form der Kletterhemmung (4 Pfoten am Boden)"}, {"measurement": "Stabilität im festen Zustand", "setting": "[3]", "value": "stabil"}, {"measurement": "Stabilität in Lösungen", "setting": "[3]", "value": "stabil"}]}]}
